Data from patent US9642834B2, “Composition comprising alpha-lipoic acid and honokiol for treating neuropathies” (Giellepi S.p.A., priority 2012, dated 2017).
“Also recorded” adds a separate entry of the source.

Legend:
[1] = tested on: primary cell culture of rat cortical neurons; test: Morphological evaluation of neurite length (MAP2 staining) in primary cultures; format: cell-based; conditions: for Increase respect to control (culture A): neurite length relative to control culture A; for Increase respect to control (culture A) / Increase of average neurite length: overall concentration 10 μM (culture B: 40 ng mL−1 bFGF), 6 days incubation; for Increase of average neurite length: control culture A 280; for Effect on neurite extension/length (in words): overall concentration 10 μM, compared to control culture A
Method: Eight primary cellular cultures were prepared as described in Abe K et al. “Effects of recombinant human basic fibroblast growth factor and its modified protein CS23 on survival of primary cultured neurons from various regions of fetal rat brain.”, Jpn J Pharmacol 1990, 53 (2): 221-7. All operations were carried out under sterile conditions.
Neuronal cells were separated from cerebral hemispheres of rat fetuses of 18 days (Japan SLC, Inc.) and suspended in 10% FBS/MEM, then seeded at 9000 cells cm^−2 in poly-L-lysine plates.
After 24 hours, the culture medium was replaced with a serum-free medium, specific for the growth of neurons (Neurobasal Medium) supplemented with B27.
After 6 days incubation, the cells of the eight cultures were fixed with 4% formaldehyde.
The eight cultures were then evaluated regarding the length of neurites at the microscopic level. The neurons were subjected to immunohistochemical staining for the microtubule-associated protein-2 (MAP2) according to the histochemical method for the length of neurites, as described in Fukuyama Y et al. “Neurotrophic activity of honokiol on the cultures of fetal rat cortical neurons” Bioorg. Med Chem. Lett 12, 1163-66 (2002). The length of the most extended neurite of the whole cellular body was measured and calculated by using software programs Lumina Vision and Mac-SCOPE, according to the above-mentioned method described in Y. Fukuyama et al. (2002). The morphometric analyses were performed by measuring the length of the longest neurite from each neuron using Lumina Vision and Mac-Scope software (Yoshiyasu Fukuyama et al. 2002).

[2] = tested on: symptoms of diabetic polyneuropathy and sciatic pain; conditions: cited from earlier work
[3] = tested on: cultured rat cortical neurons; conditions: primary cultures; cited from earlier work

Culture B: Human recombinant fibroblast growth factors (bFGF), 40 ng mL−1, supplied by Upstate Biotechnology
Increase respect to control (culture A) [1]: 1.05 | Increase of average neurite length [1]: 295 (p = ns) μm

O=C(O)CCCCC1CCSS1 (stereo not drawn) [Culture G, alpha-lipoic acid]
Increase respect to control (culture A) [1]: 1.01 | Increase of average neurite length [1]: 285 (p = ns) μm | Effect on neurite extension/length (in words) [1]: stimulated neurite growth in a negligible way | Side effects such as nausea, vomiting and dizziness ([2]; daily doses 600, 1200 and 1800 mg): dose-dependent increase of the side effects | Daily dose providing the best risk/benefit ratio ([2]; treatment of symptoms of diabetic polyneuropathy and sciatic pain): 600 mg

C=CCc1ccc(O)c(-c2ccc(O)c(CC=C)c2)c1 [Culture H, honokiol]
Increase respect to control (culture A) [1]: 1.02 | Increase of average neurite length [1]: 287 (p = ns) μm | Effect on neurite extension/length (in words) [1]: stimulated neurite growth in a negligible way | Neurite growth and neuron survival (in words) [3]: able to promote neurite growth; also recorded: capable of increasing the survival and development of neurons
